Laboratory results taken from patent US11512069B2, “TLR7/8 antagonists and uses thereof” (Merck Patent GmbH, priority 2016, dated 2022).
pIC50: −log10 of the molar value.

Molecular target: T1, TLR7 (Homo sapiens, UniProt Q9NYK1)
T1 construct: expressed in transfected cells; host or cells: HEK cells carrying TLR7 and an NF-kB reporter read with Steady-Glo
T1 sequence (Q9NYK1 27-1049): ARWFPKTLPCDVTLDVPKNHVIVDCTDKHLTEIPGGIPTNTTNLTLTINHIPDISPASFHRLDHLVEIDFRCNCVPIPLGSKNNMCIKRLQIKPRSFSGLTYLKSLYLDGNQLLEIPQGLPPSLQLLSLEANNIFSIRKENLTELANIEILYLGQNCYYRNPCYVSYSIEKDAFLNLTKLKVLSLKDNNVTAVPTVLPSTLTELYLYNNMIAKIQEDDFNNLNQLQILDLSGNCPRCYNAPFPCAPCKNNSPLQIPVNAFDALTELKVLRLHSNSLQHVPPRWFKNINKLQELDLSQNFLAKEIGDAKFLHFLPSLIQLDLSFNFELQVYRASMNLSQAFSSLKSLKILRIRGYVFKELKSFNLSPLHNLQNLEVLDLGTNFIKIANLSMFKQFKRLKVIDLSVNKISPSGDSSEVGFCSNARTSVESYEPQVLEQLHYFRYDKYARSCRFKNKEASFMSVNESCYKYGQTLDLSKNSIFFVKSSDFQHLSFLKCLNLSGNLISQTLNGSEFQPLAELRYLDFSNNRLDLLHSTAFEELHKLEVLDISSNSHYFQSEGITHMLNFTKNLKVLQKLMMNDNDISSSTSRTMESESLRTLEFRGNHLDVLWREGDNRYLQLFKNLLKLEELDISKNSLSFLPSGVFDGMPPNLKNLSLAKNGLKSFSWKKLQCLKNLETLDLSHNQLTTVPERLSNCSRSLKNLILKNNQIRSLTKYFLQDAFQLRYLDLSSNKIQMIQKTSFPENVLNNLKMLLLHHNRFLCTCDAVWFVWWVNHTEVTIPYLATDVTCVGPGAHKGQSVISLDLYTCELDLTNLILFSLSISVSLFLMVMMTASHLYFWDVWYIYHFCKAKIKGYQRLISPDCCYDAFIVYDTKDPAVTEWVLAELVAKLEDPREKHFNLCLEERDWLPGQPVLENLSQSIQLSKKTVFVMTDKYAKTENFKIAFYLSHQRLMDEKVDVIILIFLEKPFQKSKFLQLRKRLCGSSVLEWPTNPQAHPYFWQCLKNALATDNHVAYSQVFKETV
Assay: HEK Cell Assay (TLR7/NFKb HEK reporter cells, Steady-Glo)
Type: cell-based
Details: compound 30 min, then R*48 agonist 5 hours, Steady-Glo readout, read-out: Potency
Summary of the method: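 TLR7/NF-κB HEK reporter cells cultured 24 h, then pre-incubated 30 min with compound before adding R*48 agonist. Luciferase read by Steady-Glo luminescence after 5 h.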

Row | pIC50 | Structure (SMILES)
1 | > 6.00 | C[C@H]1C[C@@H](N)C[C@@H](c2ccc(C#N)c3nccnc23)C1 [Compound 121, 8-[(1S,3R,5R)-3-amino-5-methylcyclohexyl]quinoxaline-5-carbonitrile]
2 | > 6.00 | COCCN[C@@H]1C[C@H](C)C[C@H](c2ccc(C#N)c3nccnc23)C1 (relative stereo) [Compound 133, 8-[(cis-1,3,5)-3-[(2-methoxyethyl)amino]-5-methylcyclohexyl]quinoxaline-5-carbonitrile]
3 | 4.70 to 6.00 | C[C@@H]1C[C@H](c2ccc(C#N)c3ncccc23)CN(C(=O)C2CN(C)C2)C1 (relative stereo) [Compound 31]
4 | 4.70 to 6.00 | C[C@H]1C[C@@H](NC(=O)CC2CC2(F)F)C[C@@H](c2ccc(C#N)c3nccnc23)C1 (mixture of isomers) [Compound 156, N-[(cis-1,3,5)-3-(8-cyanoquinoxalin-5-yl)-5-methylcyclohexyl]-2-(2,2-difluorocyclopropyl)acetamide]
5 | < 4.70 | C[C@@H]1C[C@H](c2ccc(C#N)c3ncccc23)CN(C(=O)Cc2cnn(C)c2)C1 (relative stereo) [Compound 107, cis-5-Methyl-1-[2-(1-methyl-1H-pyrazol-4-yl)-acetyl]-piperidin-3-yl-quinoline-8-carbonitrile]
6 | > 6.00 | CC1CC(c2ccc(C#N)c3ncccc23)CN(CC2CCN(C)C2)C1 (stereo not drawn) [Compound 51]
7 | > 6.00 | CC1CC(c2ccc(Cl)c3ncccc23)CN(C(=O)CC2CCN(C)CC2)C1 (stereo not drawn) [Compound 22, 1-[3-(8-Chloro-quinolin-5-yl)-5-methyl-piperidin-1-yl]-2-(1-methyl-piperidin-4-yl)-ethanone]
8 | < 4.70 | C[C@@H]1C[C@@H](c2ccc(C(F)(F)F)c3ncccc23)CN(C(=O)Cn2cccn2)C1 (relative stereo) [Compound 15]
9 | < 4.70 | C[C@@H]1C[C@H](c2ccc(C#N)c3ncccc23)CN(C(=O)c2cc3n(n2)CCC3)C1 (relative stereo) [Compound 38, cis-5-[1-(5,6-Dihydro-4H-pyrrolo[1,2-b]pyrazole-2-carbonyl)-5-methyl-piperidin-3-yl]-quinoline-8-carbonitrile]
10 | 4.70 to 6.00 | C[C@@H]1C[C@H](c2ccc(C#N)c3ncccc23)CN(C(=O)[C@@H](N)C2CC2)C1 [Compound 61]
11 | > 6.00 | C[C@@H]1C[C@H](c2ccc(C#N)c3ncccc23)CN(C(=O)NC2CCN(C)CC2)C1 [Compound 113, (3R,5R)-3-(8-Cyano-quinolin-5-yl)-5-methyl-piperidine-1-carboxylic acid (1-methyl-piperidin-4-yl)-amid]
12 | 4.70 to 6.00 | COCCN[C@@H]1C[C@H](C)C[C@@H](c2ccc(C#N)c3nccnc23)C1 (relative stereo) [Compound 134, 8-[(1,trans-3,cis-5)-3-[(2-methoxyethyl)amino]-5-methylcyclohexyl]quinoxaline-5-carbonitrile]
13 | > 6.00 | CC1CC(c2ccc(C#N)c3ncccc23)CN(C(=O)NC2CCN(C)CC2)C1 (stereo not drawn) [Compound 109, 3-(8-Cyano-quinolin-5-yl)-5-methyl-piperidine-1-carboxylic acid (1-methyl-piperidin-4-yl)-amide]
14 | < 4.70 | C[C@@H]1C[C@H](c2ccc(C(F)(F)F)c3ncccc23)CN(C)C1 (relative stereo) [Compound 5]
15 | < 4.70 | C[C@@H]1C[C@@H](c2ccc(C(F)(F)F)c3ncccc23)CN(C)C1 (relative stereo) [Compound 6]
16 | > 6.00 | C[C@H]1C[C@@H](NC(=O)CC(C)(C)C)C[C@@H](c2ccc(C#N)c3nccnc23)C1 (racemic) [Compound 129, N-[(cis-1,3,5)-3-(8-cyanoquinoxalin-5-yl)-5-methylcyclohexyl]-3,3-dimethylbutanamide]
17 | 4.70 to 6.00 | C[C@@H]1C[C@H](c2ccc(C#N)c3ncccc23)CN(CC(=O)NCC2CCN(C)CC2)C1 (relative stereo) [Compound 74, cis-2-[3-(8-Cyano-quinolin-5-yl)-5-methyl-piperidin-1-yl]-N-(1-methyl-piperidin-4-ylmethyl)-acetamide]

Row | pIC50 | Structure (SMILES)
18 | > 6.00 | CC1CC(c2ccc(C(F)(F)F)c3ncccc23)CN(C(=O)CC2CCN(C)CC2)C1 (stereo not drawn) [Compound 3, 2-(1-Methyl-piperidin-4-yl)-1-[3-methyl-5-(8-trifluoromethyl-quinolin-5-yl)-piperidin-1-yl]-ethanone]
19 | > 6.00 | C[C@H]1C[C@@H](NC(=O)[C@@H](O)C(C)(C)C)C[C@@H](c2ccc(C(F)(F)F)c3nccnc23)C1 [Compound 154, (S)-2-hydroxy-3,3-dimethyl-N-((1R,3R,5S)-3-methyl-5-(8-(trifluoromethyl)quinoxalin-5-yl)cyclohexyl)butanamide]
20 | 4.70 to 6.00 | CC(C)[C@H](O)C(=O)N[C@H]1C[C@@H](C)C[C@H](c2ccc(C#N)c3nccnc23)C1 [Compound 128, (S)—N-((1S,3S,5S)-3-(8-cyanoquinoxalin-5-yl)-5-methylcyclohexyl)-2-hydroxy-3-methylbutanamide]
21 | 4.70 to 6.00 | C[C@@H]1C[C@H](c2ccc(C#N)c3ncccc23)CN(CC(=O)NC2CCN(C)CC2)C1 (relative stereo) [Compound 68, cis-2-[3-(8-Cyano-quinolin-5-yl)-5-methyl-piperidin-1-yl]-N-(1-methyl-piperidin-4-yl)-acetamide]
22 | > 6.00 | COc1ccc([C@@H]2C[C@@H](C)CN(C(=O)CC3CCN(C)CC3)C2)c2cccnc12 [Compound 86, 1-[(3S,5R)-3-(8-Methoxy-quinolin-5-yl)-5-methyl-piperidin-1-yl]-2-(1-methyl-piperidin-4-yl)-ethanone]
23 | > 6.00 | C[C@@H]1C[C@H](N)C[C@@H](c2ccc(C(F)(F)F)c3nccnc23)C1 [Compound 141, (1S,3S,5S)-3-methyl-5-(8-(trifluoromethyl)quinoxalin-5-yl)cyclohexanamine]
24 | 4.70 to 6.00 | C[C@@H]1C[C@@H](c2ccc(C#N)c3ncccc23)CN(C(=O)CN2CCN(C)CC2)C1 [Compound 96, 5-{(3S,5R)-5-Methyl-1-[2-(4-methyl-piperazin-1-yl)-acetyl]-piperidin-3-yl}-quinoline-8-carbonitrile]
25 | > 6.00 | C[C@H]1C[C@@H](N)C[C@@H](c2ccc(C(F)(F)F)c3nccnc23)C1 [Compound 139, (1R,3R,5S)-3-methyl-5-(8-(trifluoromethyl)quinoxalin-5-yl)cyclohexanamine]
26 | > 6.00 | C[C@@H]1C[C@H](c2ccc(OC(F)(F)F)c3ncccc23)CN(C(=O)NC2CCN(C)CC2)C1 [Compound 112, (3R,5R)-3-Methyl-5-(8-trifluoromethoxy-quinolin-5-yl)-piperidine-1-carboxylic acid (1-methyl-piperidin-4-yl)-amide]
27 | > 6.00 | Cc1c(F)cc([C@H]2C[C@@H](C)CN(C(=O)CC3CCN(C)CC3)C2)c2cccnc12 [Compound 90, 1-[(3R,5R)-3-(7-Fluoro-8-methyl-quinolin-5-yl)-5-methyl-piperidin-1-yl]-2-(1-methyl-piperidin-4-yl)-ethanone]
28 | 4.70 to 6.00 | C[C@@H]1C[C@@H](c2ccc(C#N)c3ncccc23)CN(C(=O)C2CC(N)C2)C1 (stereo partly drawn) [Compound 99, 5-[(3S,5R)-1-(3-aminocyclobutanecarbonyl)-5-methyl-3-piperidyl]quinoline-8-carbonitrile]
29 | 4.70 to 6.00 | CC1CC(c2ccc(C(F)(F)F)c3ncccc23)CN(C(=O)CCN2CCN(C)CC2)C1 (stereo not drawn) [Compound 11, 3-(4-Methyl-piperazin-1-yl)-1-[3-methyl-5-(8-trifluoromethyl-quinolin-5-yl)-piperidin-1-yl]-propan-1-one]
30 | < 4.70 | C[C@@H]1C[C@H](c2ccc(C#N)c3ncccc23)CN(C(=O)Cc2cccnc2)C1 (relative stereo) [Compound 20]
31 | 4.70 to 6.00 | C[C@H]1C[C@@H](N)C[C@@H](c2ccc(C(F)(F)F)c3ncccc23)C1 [Compound 135, (1R,3R,5S)-3-methyl-5-(8-(trifluoromethyl)quinolin-5-yl)cyclohexanamine]
32 | 4.70 to 6.00 | CC(C)[C@H](O)C(=O)N[C@H]1C[C@@H](C)C[C@@H](c2ccc(C#N)c3nccnc23)C1 [Compound 126, (S)—N-((1S,3R,5S)-3-(8-cyanoquinoxalin-5-yl)-5-methylcyclohexyl)-2-hydroxy-3-methylbutanamide]
33 | > 6.00 | Cc1ccc([C@H]2C[C@@H](C)CN(C(=O)CC3CCN(C)CC3)C2)c2cccnc12 [Compound 81, 1-[(3R,5R)-3-Methyl-5-(8-methyl-quinolin-5-yl)-piperidin-1-yl]-2-(1-methyl-piperidin-4-yl)-ethanone]
